Data taken from ChEMBL document CHEMBL4304823, “Photo-induced synthesis of Axinastatin 3 analogs, the secondary structures and their in vitro antitumor activities” (Bioorg Med Chem Lett, 2019).
Converted amounts (≈) assume the structure as drawn. The source made the active and inactive calls. No cut-off for these calls is given here.

Experiments:
HepG2 [1] = experiment: Induction of cell morphological changes in human HepG2 cells assessed as change in normal spindle cell shape to rounder cells with weak adhesion ability at 40 uM measured after 0 to 48 hrs by fluorescence inversion microscopy analysis; assay type: functional, cell-based
HepG2 [2] = experiment: Induction of cell morphological changes in human HepG2 cells assessed as decrease in cell number at 40 uM measured after 0 to 48 hrs by fluorescence inversion microscopy analysis; assay type: functional, cell-based
HepG2 [3] = experiment: Induction of cell death in human HepG2 cells at 40 uM measured after 48 hrs by fluorescence inversion microscopy analysis; assay type: functional, cell-based
HeLa = experiment: Antitumour activity against human HeLa cells assessed as reduction in cell viability by MTT assay; assay type: functional, cell-based
HepG2 [4] = experiment: Antitumour activity against human HepG2 cells assessed as reduction in cell viability incubated for 48 hrs by MTT assay; assay type: functional, cell-based; conditions: HepG2, 48 h
L929 = experiment: Cytotoxicity against mouse L929 cells assessed as reduction in cell viability measured after 48 hrs; assay type: cell-based; conditions: for IC50: Mus musculus, L929, 48 h; for Activity: mouse, l929, 48 h

| Compound | Activity (HepG2 [1]) | Activity (HepG2 [2]) | Activity (HepG2 [3]) | IC50 (HeLa) [µg/mL] | IC50 (HepG2 [4]) [µg/mL] | IC50 (L929) [µg/mL] | Activity (L929) |
| --- | --- | --- | --- | --- | --- | --- | --- |
| CC[C@H](C)[C@@H]1NC(=O)CN2C(=O)c3ccccc3[C@@]2(O)CN(Cc2ccccc2)C(=O)[C@H]2CCCN2C(=O)[C@H](C(C)C)NC(=O)[C@H]2CCCN2C(=O)[C@H](CC(C)C)NC1=O | Active | Active | Active |  |  |  |  |
| CC[C@H](C)[C@@H]1NC(=O)CN2C(=O)c3ccccc3[C@@]2(O)CN(Cc2ccccc2)C(=O)[C@@H]2CCCN2C(=O)[C@H](C(C)C)NC(=O)[C@@H]2CCCN2C(=O)[C@H](CC(C)C)NC1=O |  |  |  | 41.2 (≈ 49.7 µM) | 38.4 (≈ 46.4 µM) | 50.5 (≈ 61 µM) | Dose-dependent effect |
| CC[C@H](C)[C@@H]1NC(=O)CN2C(=O)c3ccccc3[C@]2(O)CN(Cc2ccccc2)C(=O)[C@@H]2CCCN2C(=O)[C@H](C(C)C)NC(=O)[C@@H]2CCCN2C(=O)[C@H](CC(C)C)NC1=O |  |  |  | 89 (≈ 107 µM) | 72.6 (≈ 87.6 µM) | 86.2 (≈ 104 µM) | Dose-dependent effect |
| CCNC(=O)CC[C@@H]1NC(=O)CN2C(=O)c3ccccc3[C@@]2(O)CN(Cc2ccccc2)C(=O)[C@H]2CCCN2C(=O)[C@H](C(C)C)NC(=O)[C@H]2CCCN2C(=O)[C@H](CC(C)C)NC(=O)[C@H]([C@@H](C)CC)NC1=O |  |  |  | 280 (≈ 285 µM) | 64.5 (≈ 65.6 µM) | 61.1 (≈ 62 µM) | Dose-dependent effect |
| CC(=O)O[C@H]1C(=O)[C@@]2(C)[C@H]([C@H](OC(=O)c3ccccc3)[C@]3(O)C[C@H](OC(=O)[C@H](O)[C@@H](NC(=O)c4ccccc4)c4ccccc4)C(C)=C1C3(C)C)[C@]1(OC(C)=O)CO[C@@H]1C[C@@H]2O [PACLITAXEL] |  |  |  | > 400 | 102 (≈ 119 µM) | 33 (≈ 38.6 µM) |  |
